These results are taken from patent US12054500B2, “Arginase inhibitors” (ARCUS BIOSCIENCES, INC., priority 2018, dated 2024).

The assay addresses T1, recombinant human ARG1 (Homo sapiens, UniProt P05089).
T1 sequence (P05089 1-322): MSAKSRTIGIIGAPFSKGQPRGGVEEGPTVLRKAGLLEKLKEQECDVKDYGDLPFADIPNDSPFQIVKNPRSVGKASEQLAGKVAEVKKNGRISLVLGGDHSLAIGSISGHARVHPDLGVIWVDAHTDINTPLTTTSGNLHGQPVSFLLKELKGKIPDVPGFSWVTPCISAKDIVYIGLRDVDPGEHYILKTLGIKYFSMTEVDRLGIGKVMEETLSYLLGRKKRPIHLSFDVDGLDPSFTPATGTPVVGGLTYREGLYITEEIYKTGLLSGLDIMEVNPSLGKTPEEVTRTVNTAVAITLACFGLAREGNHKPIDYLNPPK
Nature of the assay: Arginase coupled enzymatic assay using recombinant human ARG1. The assay is classed as biochemical. As to conditions: 2 nM ARG1, 0.8 mM L-Arginine, 10 mM sodium phosphate pH 7.4, 37° C.; read-out: Potency: Arginase 1 inhibition IC50. The procedure: Measurement of Compound Potency by Arginase Coupled Enzymatic Assay Using Recombinant Human ARG1 and ARG2
Purified recombinant human ARG1 and ARG2 were prepared in 50 mM Bicine, pH 8.5, 100 μM MnCl2, 20% glycerol and 1 mM DTT at a final stock concentration of 14.4 μM and 7.56 μM respectively. 2.5 nM of either ARG1 or ARG2 were incubated with varying concentrations of compounds in 10 mM sodium phosphate, pH 7.4, 0.1 mM MnCl2 and 2.5% DMSO in a total volume of 40 μl in a 384-well microplate (Corning™ #3640) at 37° C. for 1 h. The arginase enzymatic reaction was initiated by addition of 10 μl of 4 mM L-Arginine pre-incubated in 10 mM sodium phosphate, pH 7.4, and 0.1 mM MnCl2 at 37° C. into the enzyme and compound mixture, giving the final reaction conditions: 2 nM of ARG1 or ARG2 and 0.8 mM of L-Arginine in 10 mM sodium phosphate, pH 7.4, 0.1 mM MnCl2 and 2% DMSO with varying concentrations of compounds. Following 2 h incubation at 37° C., the arginase enzymatic reaction was stopped by transfer of 10 μl of reaction into 10 μl of detection mix (204 μM Amino-2-Borono-6-Hexanoic Acid, 0.25 μl Arginase Enzyme mix, 0.25 μl Arginase Developer, 0.25 μl Arginase Converter Enzyme in Arginase Assay Buffer from Arginase Activity Colorimetric Assay Kit, BioVision Inc. #K755-100) in a transparent 384-well microplate (Greiner #781801). The plate was immediately put into a plate reader (Synergy™ Neo2 Multi-Mode Microplate Reader) to monitor absorption at 570 nm at 37° C. Absorption values at 12-20 min were used to calculate compound potency. The value of the DMSO blank (MIN inhibition=100% activity) was used as a negative control. The positive control was established by adding 8 μl of enzyme and DMSO mix into 10 μl of detection mix followed by addition of 2 μl of L-Arginine (MAX inhibition=0% activity). To calculate the percent activity, Equation 1 was used. Abs570nm is the value at a given compound concentration:
A counter-screen was performed to identify any inhibition of the coupling enzymes by the test compounds. 10 μl of 0.26 mM of urea with varying concentrations of compounds in 10 mM sodium phosphate, pH 7.4, 0.1 mM MnCl2 and 2% DMSO were added into 10 μl of detection mix in place of the arginase enzymatic reaction mix. Absorption was monitored at 570 nm as described above. The values of a no substrate blank (without urea; MAX inhibition=0% activity) and a DMSO blank (MIN inhibition=100% activity) were used as positive and negative controls respectively. […] Inactivity in the counter-screen was used to confirm that results accurately reflected IC50 values for ARG1 and ARG2.
With `N[C@@]1(C(=O)O)C[C@H]2CN(C3COC3)C[C@H]2[C@@H]1CCCB(O)O`, the IC50 is 100 to 1000 nM.
With `C[C@H](N)C(=O)N1C[C@@H]2C[C@](N)(C(=O)O)[C@H](CCCB(O)O)[C@@H]2C1` the figure was 100 to 1000 nM; with `C[C@H](N)C(=O)N1C[C@@H]2C[C@@](N)(C(=O)O)[C@@H](CCCB(O)O)[C@@H]2C1`, 100 to 1000 nM.
With `CC1(C)[C@H]2C[C@@H]3OB(CCC[C@H]4[C@@H]5CNC[C@@H]5C[C@@]4(N)C(=O)O)O[C@]3(C)[C@@H]1C2` the figure was 100 to 1000 nM; with `NCCN1C[C@@H]2C[C@@](N)(C(=O)O)[C@@H](CCCB(O)O)[C@@H]2C1`, 100 to 1000 nM.
In the case of `N[C@@]1(C(=O)O)C[C@H]2CN(C(CO)CCl)C[C@H]2[C@@H]1CCCB(O)O` (some centres unmarked) it was less than 100 nM; in that of `N[C@]1(C(=O)O)C[C@H]2CN(C(=O)[C@@H]3CCCN3)C[C@H]2[C@H]1CCCB(O)O`, 100 to 1000 nM.
On to `N[C@@]1(C(=O)O)C[C@H]2CNC[C@H]2[C@@H]1CCCB(O)O`, for which the concentration for half-maximal inhibition (IC50) was less than 100 nM.

Usually IC50 stands for the point on the concentration scale where inhibition reaches its midpoint.
